{"source": "patent US20080015225A1", "about": "“Dimeric Piperidine Derivatives” (JANSSEN PHARMACEUTICA N.V., priority 2004, published 2008)"}
{"system": "chicken dorsal root ganglion (DRG) neurons", "assay": "Neuronal viability assay (calcein-AM) in primary culture of chicken dorsal root ganglion neurons", "type": "cell-based, chicken (White Leghorn chick embryos)", "conditions": "Gallus gallus, DRG neuron, 48 h; survival of chick embryonic day 10 DRG neurons after two days of incubation; calcein-AM fluorescence; 0% = no neurotrophic factor, 100% = 10 ng/ml NGF; pIC50 from dose response curves; read-out: [C1] DRG assay SCORE", "source_text": "This assay is based on a fluorimetric Calcein-AM measurement and addresses the functional response of neurons as a quantitative measure of survival.\nPrimary Culture of Chicken Dorsal Root Ganglion Neurons\nDorsal root ganglia were dissected from White Leghorn chick embryos at embryonic day 10 as described previously (Skaper S. D. and Varon S. (1986) Brain Research 389, 39-46). The ganglia were trypsinised and dissociated by mild trituration in a HBSS buffer supplemented with 0.6% glucose and 0.08% trypsin. To remove non-neuronal lo cells by differential attachment to culture plastic, the ganglionic cell suspension was diluted to 2.5×10^5 cells/ml and seeded on tissue culture plastic dishes at 10 ml per 100 mm dish. After 2 h preplating, unattached neurons were collected and resuspended into Basal Eagle Medium containing 10% FCS. To remove cell aggregates, the cell suspension was passed through a nylon mesh (50 μM) pore diameter. Neuron-enriched cell suspension was plated at 5×10^4 cells/ml into poly-L-ornithine (100 μg/ml) and laminine (1 μg/ml) coated multiwell 96 plates. Compounds were dissolved in dimethyl sulfoxide and kept as a stock at −20° C. NGF and compounds were diluted in the culture medium and added to the cells immediately after plating. The final concentration of dimethyl sulfoxide in the test medium was 0.1%. After two days of incubation, neuronal viability was assessed with calcein-AM.\nNeuronal Viability Assay Using Calcein-AM\nNeuronal viability assay using calcein AM was performed as previously described (Bozyczko-Coyne D., McKenna B. W., Connors T. J., and Neff N. T. (1993) Journal of Neuroscience Methods 50, 205-216). For the assay, calcein-AM was diluted in PBS to the final concentration (1 μM). For each experiment an aliquot of calcein-AM (1 mg/ml in DMSO stored at −20° C.) was thawed immediately before use. The medium was removed from the wells and replaced with the calcein-AM solution. Assay plates were incubated for 1 h at 37° C. in a humidified CO2 incubator. Following the incubation, reading was done in a Cytofluor II at an excitation wavelength of 485 nm and an emission wavelength of 530 nm. Each plate had control wells with no neurotrophic factor added (0% survival) and wells with 10 ng/ml NGF (100% survival).\nThe drugs to be tested were taken from a stock solution and tested at a final concentration ranging from […] to 3.10^−9M. From the thus obtained dose response curves, the pIC50 value was calculated and scored as follows; Score 1=pIC50 value <6, Score 2=pIC50 value in the range of 6 to 8, Score 3 =pIC50 value>8. (in this table NT stands for Not Tested).", "units": {"IC50": "µM"}}
{"smiles": "O=C(c1ccc(F)cc1)C1CCN(CC#CCN2CCC(C(=O)c3ccc(F)cc3)CC2)CC1", "note": "[Compound 1]", "IC50": "< 0.01"}
{"smiles": "c1ccc2c(c1)CCN2C1CCN(CCCCCCCCCCCCN2CCC(N3CCc4ccccc43)CC2)CC1", "note": "[Compound 2]", "IC50": "0.01 to 1"}
{"smiles": "O=C(NCCCCCCNC(=O)N1CCC(O)(c2cccc(C(F)(F)F)c2)C(O)C1)N1CCC(O)(c2cccc(C(F)(F)F)c2)C(O)C1", "note": "(stereo not drawn) [Compound 3]", "IC50": "0.01 to 1"}
{"smiles": "CC(C)(C)Cc1nc(C2CCN(C(=O)CCCCCC(=O)N3CCC(c4noc(CC(C)(C)C)n4)CC3)CC2)no1", "note": "[Compound 4]", "IC50": "> 1"}
{"smiles": "O=S(=O)(c1ccc(Cc2ccc(S(=O)(=O)N3CCC(O)(c4cccnc4)CC3)cc2)cc1)N1CCC(O)(c2cccnc2)CC1", "note": "[Compound 5]", "IC50": "0.01 to 1"}
{"smiles": "O=S(=O)(c1ccc(Oc2ccc(S(=O)(=O)N3CCC(O)(c4ccc(Br)cc4)CC3)cc2)cc1)N1CCC(O)(c2ccc(Br)cc2)CC1", "note": "[Compound 6]", "IC50": "> 1"}
{"smiles": "O=C(CCCCCCCC(=O)N1CCC(O)(c2cccc(Cl)c2)CC1)N1CCC(O)(c2cccc(Cl)c2)CC1", "note": "[Compound 7]", "IC50": "> 1"}
{"smiles": "O=C(CCCCC(=O)N1CCC(OCc2cccc(C(F)(F)F)c2)CC1)N1CCC(OCc2cccc(C(F)(F)F)c2)CC1", "note": "[Compound 10]", "IC50": "0.01 to 1"}
{"smiles": "O=C(CCCCCCC(=O)N1CCC(Oc2nc3ccccc3s2)CC1)N1CCC(Oc2nc3ccccc3s2)CC1", "note": "[Compound 11]", "IC50": "0.01 to 1"}
{"smiles": "O=C(CCCCCCC(=O)N1CCC(OCc2cccc(C(F)(F)F)c2)CC1)N1CCC(OCc2cccc(C(F)(F)F)c2)CC1", "note": "[Compound 12]", "IC50": "0.01 to 1"}
{"smiles": "O=S(=O)(c1ccc(Cc2ccc(S(=O)(=O)N3CCC(O)(c4ccc(Cl)c(Cl)c4)CC3)cc2)cc1)N1CCC(O)(c2ccc(Cl)c(Cl)c2)CC1", "note": "[Compound 13]", "IC50": "> 1"}
{"smiles": "O=S(=O)(c1ccc(Oc2ccc(S(=O)(=O)N3CCC(O)(c4ccc(Cl)c(Cl)c4)CC3)cc2)cc1)N1CCC(O)(c2ccc(Cl)c(Cl)c2)CC1", "note": "[Compound 14]", "IC50": "0.01 to 1"}
{"smiles": "O=S(=O)(c1ccc(Oc2ccc(S(=O)(=O)N3CCC(O)(c4cccc(Cl)c4)CC3)cc2)cc1)N1CCC(O)(c2cccc(Cl)c2)CC1", "note": "[Compound 15]", "IC50": "0.01 to 1"}
{"smiles": "O=S(=O)(c1ccc(Oc2ccc(S(=O)(=O)N3CCC(O)(c4ccc(Cl)cc4)CC3)cc2)cc1)N1CCC(O)(c2ccc(Cl)cc2)CC1", "note": "[Compound 16]", "IC50": "0.01 to 1"}
{"smiles": "C(#CCN1CCC(c2c[nH]c3ccccc23)CC1)CN1CCC(c2c[nH]c3ccccc23)CC1", "note": "[Compound 17]", "IC50": "0.01 to 1"}
{"smiles": "OC(CN1CCC(O)(c2cccc(C(F)(F)F)c2)C(O)C1)CN1CCC(O)(c2cccc(C(F)(F)F)c2)C(O)C1", "note": "(stereo not drawn) [Compound 18]", "IC50": "0.01 to 1"}
{"smiles": "OC(CN1CCC(O)(c2ccc(Cl)cc2)CC1)CN1CCC(O)(c2ccc(Cl)cc2)CC1", "note": "[Compound 19]", "IC50": "0.01 to 1"}
{"smiles": "O=C(CCCCCCCC(=O)N1CCC(O)(c2ccc(Cl)c(C(F)(F)F)c2)CC1)N1CCC(O)(c2ccc(Cl)c(C(F)(F)F)c2)CC1", "note": "[Compound 20]", "IC50": "0.01 to 1"}
{"smiles": "O=C(c1cccc(C(=O)N2CCC(O)(c3ccc(Cl)c(C(F)(F)F)c3)CC2)c1)N1CCC(O)(c2ccc(Cl)c(C(F)(F)F)c2)CC1", "note": "[Compound 21]", "IC50": "0.01 to 1"}
{"smiles": "O=C(CCCCCCCC(=O)N1CCC(O)(c2ccc(Cl)c(Cl)c2)CC1)N1CCC(O)(c2ccc(Cl)c(Cl)c2)CC1", "note": "[Compound 22]", "IC50": "> 1"}
{"smiles": "O=C(c1ccc(Cl)cc1)C1CCN(C(=O)CCCCCCCC(=O)N2CCC(C(=O)c3ccc(Cl)cc3)CC2)CC1", "note": "[Compound 23]", "IC50": "0.01 to 1"}
{"smiles": "O=C(c1ccc(Cl)cc1)C1CCN(C(=O)CCCCC(=O)N2CCC(C(=O)c3ccc(Cl)cc3)CC2)CC1", "note": "[Compound 24]", "IC50": "0.01 to 1"}
{"smiles": "O=C(CCCCC(=O)N1CCC(O)(c2ccc(Cl)c(C(F)(F)F)c2)CC1)N1CCC(O)(c2ccc(Cl)c(C(F)(F)F)c2)CC1", "note": "[Compound 25]", "IC50": "> 1"}
{"smiles": "OC1(c2ccc(Cl)cc2)CCN(CC#CCN2CCC(O)(c3ccc(Cl)cc3)CC2)CC1", "note": "[Compound 26]", "IC50": "< 0.01"}
{"smiles": "COc1cc2nc(NCC3CCN(C(=O)NCCCCCCNC(=O)N4CCC(CNc5nc6cc(OC)c(OC)cc6s5)CC4)CC3)sc2cc1OC", "note": "[Compound 27]", "IC50": "0.01 to 1"}
{"smiles": "O=C(NCCCCCCNC(=O)N1CCC(O)(c2ccc(Cl)cc2)CC1)N1CCC(O)(c2ccc(Cl)cc2)CC1", "note": "[Compound 28]", "IC50": "0.01 to 1"}
{"smiles": "O=C(NCCCCCCNC(=O)N1CCC(Cc2c[nH]c3ccccc23)CC1)N1CCC(Cc2c[nH]c3ccccc23)CC1", "note": "[Compound 29]", "IC50": "0.01 to 1"}
{"smiles": "O=C(NCCCCCCNC(=O)N1CCC(c2noc3cc(F)ccc23)CC1)N1CCC(c2noc3cc(F)ccc23)CC1", "note": "[Compound 30]", "IC50": "0.01 to 1"}
{"smiles": "O=C(Nc1ccc(Cc2ccc(NC(=O)N3CCC(O)(c4ccc(F)cc4)CC3)cc2)cc1)N1CCC(O)(c2ccc(F)cc2)CC1", "note": "[Compound 32]", "IC50": "> 1"}
{"smiles": "O=C(Nc1ccc(NC(=O)N2CCC(O)(c3cccc(C(F)(F)F)c3)CC2)cc1)N1CCC(O)(c2cccc(C(F)(F)F)c2)CC1", "note": "[Compound 33]", "IC50": "0.01 to 1"}
{"smiles": "O=C(Nc1ccc(NC(=O)N2CCC(O)(c3ccc(Cl)c(C(F)(F)F)c3)CC2)cc1)N1CCC(O)(c2ccc(Cl)c(C(F)(F)F)c2)CC1", "note": "[Compound 34]", "IC50": "0.01 to 1"}
{"smiles": "O=C(NCCCCCCNC(=O)N1CCC(Cc2nc3ccccc3s2)CC1)N1CCC(Cc2nc3ccccc3s2)CC1", "note": "[Compound 36]", "IC50": "0.01 to 1"}
{"smiles": "O=C(c1cccc(C(F)(F)F)c1)C1CCN(C(=O)NCCCCNC(=O)N2CCC(C(=O)c3cccc(C(F)(F)F)c3)CC2)CC1", "note": "[Compound 38]", "IC50": "0.01 to 1"}
{"smiles": "c1ccc2c(CC3CCN(CCCN4CCC(Cc5c[nH]c6ccccc56)CC4)CC3)c[nH]c2c1", "note": "[Compound 39]", "IC50": "0.01 to 1"}
{"smiles": "Fc1ccc2c(C3CCN(CC#CCN4CCC(c5noc6cc(F)ccc56)CC4)CC3)noc2c1", "note": "[Compound 40]", "IC50": "0.01 to 1"}
{"smiles": "COc1ccc(-c2noc(C3CCN(C(=O)c4ccc(-c5ccc(C(=O)N6CCC(c7nc(-c8ccc(OC)c(OC9CCCC9)c8)no7)CC6)cc5)cc4)CC3)n2)cc1OC1CCCC1", "note": "[Compound 41]", "IC50": "0.01 to 1"}
{"smiles": "O=C(CCCCCCCC(=O)N1CCC(c2noc3cc(F)ccc23)CC1)N1CCC(c2noc3cc(F)ccc23)CC1", "note": "[Compound 42]", "IC50": "0.01 to 1"}
{"smiles": "O=C(c1cccc(C(=O)N2CCC(O)(c3ccc(Cl)c(Cl)c3)CC2)c1)N1CCC(O)(c2ccc(Cl)c(Cl)c2)CC1", "note": "[Compound 43]", "IC50": "> 1"}
{"smiles": "O=C(c1cccc(C(=O)N2CCC(O)(c3cccc(C(F)(F)F)c3)CC2)c1)N1CCC(O)(c2cccc(C(F)(F)F)c2)CC1", "note": "[Compound 44]", "IC50": "> 1"}
{"smiles": "O=C(c1ccc(F)cc1)C1CCN(C(=O)CCCCCCCC(=O)N2CCC(C(=O)c3ccc(F)cc3)CC2)CC1", "note": "[Compound 45]", "IC50": "> 1"}
{"smiles": "OC1(c2ccc(Cl)c(Cl)c2)CCN(CC#CCN2CCC(O)(c3ccc(Cl)c(Cl)c3)CC2)CC1", "note": "[Compound 47]", "IC50": "0.01 to 1"}
{"smiles": "O=C(NCCCCCCNC(=O)N1CCC(O)(c2ccc(Cl)c(C(F)(F)F)c2)CC1)N1CCC(O)(c2ccc(Cl)c(C(F)(F)F)c2)CC1", "note": "[Compound 48]", "IC50": "0.01 to 1"}
